Data on 6 molecules can be found in ChEMBL document CHEMBL5465560, “Selectivity Literature for EUbOPEN Chemogenomic Library” (2024).

SMILES strings stand for the structures.

One assay deals with Activated CDC42 kinase 1 (Homo sapiens, UniProt Q07912). Briefly: Selectivity interaction (Ambit KINOMEscan and KiNATiv profiling in Jurkat cells) EUB0000090b TNK2. The class given is cell-based. The settings on record: at 1 µM.
Assay [1] has as its target Cyclin-dependent kinase 19 (Homo sapiens) (UniProt Q9BWU1). Briefly: Selectivity interaction (KinomeScan (DiscoverX)) EUB0001049a CDK19. The settings on record: at 1 µM.
In assay [2] the target is T1, Mitogen-activated protein kinase kinase kinase kinase 3 (Homo sapiens) (UniProt Q8IVH8).
T1 sequence (whole entry): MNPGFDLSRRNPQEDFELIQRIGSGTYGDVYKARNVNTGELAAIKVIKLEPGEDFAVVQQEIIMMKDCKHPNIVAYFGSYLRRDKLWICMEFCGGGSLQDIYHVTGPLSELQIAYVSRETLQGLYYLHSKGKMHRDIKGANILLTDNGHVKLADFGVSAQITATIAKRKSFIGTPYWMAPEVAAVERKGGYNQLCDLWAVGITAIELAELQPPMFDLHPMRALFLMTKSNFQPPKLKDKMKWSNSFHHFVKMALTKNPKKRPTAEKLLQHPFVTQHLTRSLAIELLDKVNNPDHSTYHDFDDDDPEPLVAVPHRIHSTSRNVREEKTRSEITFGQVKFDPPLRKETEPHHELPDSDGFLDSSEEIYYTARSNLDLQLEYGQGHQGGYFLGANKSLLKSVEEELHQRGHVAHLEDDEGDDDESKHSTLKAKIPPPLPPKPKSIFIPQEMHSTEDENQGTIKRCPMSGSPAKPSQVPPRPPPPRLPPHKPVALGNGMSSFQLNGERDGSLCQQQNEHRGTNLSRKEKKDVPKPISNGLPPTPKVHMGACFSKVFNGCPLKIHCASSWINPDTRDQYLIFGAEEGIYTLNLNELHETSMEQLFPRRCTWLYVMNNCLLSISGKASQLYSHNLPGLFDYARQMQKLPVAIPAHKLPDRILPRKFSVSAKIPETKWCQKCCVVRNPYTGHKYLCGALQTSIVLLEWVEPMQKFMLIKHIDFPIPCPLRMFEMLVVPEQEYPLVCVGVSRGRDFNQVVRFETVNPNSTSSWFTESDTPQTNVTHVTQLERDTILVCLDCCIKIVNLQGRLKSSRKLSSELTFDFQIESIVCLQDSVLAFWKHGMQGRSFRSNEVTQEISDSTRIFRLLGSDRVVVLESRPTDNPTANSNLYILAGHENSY
Briefly: Selectivity interaction (KinomeScan (DiscoverX)) EUB0000655a MAP4K3. The conditions noted are these: at 10 µM.

Assay [3] has as its target Tyrosine-protein kinase SYK (Homo sapiens, UniProt P43405). Briefly: Selectivity interaction (Kinase panel (Z-LYTE Assay)) EUB0001632a SYK. The settings on record: at 10 µM.
The target in assay [4] is T2, Mitogen-activated protein kinase kinase kinase 3 (Homo sapiens) (UniProt Q99759).
T2 sequence (whole entry): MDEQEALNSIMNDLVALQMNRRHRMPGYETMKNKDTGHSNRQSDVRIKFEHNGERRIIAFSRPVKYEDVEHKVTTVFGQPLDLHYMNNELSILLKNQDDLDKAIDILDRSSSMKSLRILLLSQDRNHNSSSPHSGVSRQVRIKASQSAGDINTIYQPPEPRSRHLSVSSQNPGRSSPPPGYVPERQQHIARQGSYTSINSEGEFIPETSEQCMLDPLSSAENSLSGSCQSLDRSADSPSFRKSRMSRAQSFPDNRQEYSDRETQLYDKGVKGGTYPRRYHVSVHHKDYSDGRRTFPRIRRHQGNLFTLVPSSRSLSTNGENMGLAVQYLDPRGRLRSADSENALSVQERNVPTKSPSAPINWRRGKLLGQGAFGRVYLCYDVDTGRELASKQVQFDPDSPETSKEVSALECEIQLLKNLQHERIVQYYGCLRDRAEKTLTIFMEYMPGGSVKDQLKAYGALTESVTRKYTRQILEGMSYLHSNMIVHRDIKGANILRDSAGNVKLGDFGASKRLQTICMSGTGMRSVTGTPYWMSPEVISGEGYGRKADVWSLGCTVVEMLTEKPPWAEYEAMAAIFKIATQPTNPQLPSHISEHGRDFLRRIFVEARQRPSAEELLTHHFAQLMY
Briefly: Selectivity interaction (KinomeScan (DiscoverX)) EUB0000595a MAP3K3. The conditions noted are these: at 10 µM.

Assay [5] addresses T3, Serine/threonine-protein kinase TAO1 (Homo sapiens) (UniProt Q7L7X3).
T3 sequence (whole entry): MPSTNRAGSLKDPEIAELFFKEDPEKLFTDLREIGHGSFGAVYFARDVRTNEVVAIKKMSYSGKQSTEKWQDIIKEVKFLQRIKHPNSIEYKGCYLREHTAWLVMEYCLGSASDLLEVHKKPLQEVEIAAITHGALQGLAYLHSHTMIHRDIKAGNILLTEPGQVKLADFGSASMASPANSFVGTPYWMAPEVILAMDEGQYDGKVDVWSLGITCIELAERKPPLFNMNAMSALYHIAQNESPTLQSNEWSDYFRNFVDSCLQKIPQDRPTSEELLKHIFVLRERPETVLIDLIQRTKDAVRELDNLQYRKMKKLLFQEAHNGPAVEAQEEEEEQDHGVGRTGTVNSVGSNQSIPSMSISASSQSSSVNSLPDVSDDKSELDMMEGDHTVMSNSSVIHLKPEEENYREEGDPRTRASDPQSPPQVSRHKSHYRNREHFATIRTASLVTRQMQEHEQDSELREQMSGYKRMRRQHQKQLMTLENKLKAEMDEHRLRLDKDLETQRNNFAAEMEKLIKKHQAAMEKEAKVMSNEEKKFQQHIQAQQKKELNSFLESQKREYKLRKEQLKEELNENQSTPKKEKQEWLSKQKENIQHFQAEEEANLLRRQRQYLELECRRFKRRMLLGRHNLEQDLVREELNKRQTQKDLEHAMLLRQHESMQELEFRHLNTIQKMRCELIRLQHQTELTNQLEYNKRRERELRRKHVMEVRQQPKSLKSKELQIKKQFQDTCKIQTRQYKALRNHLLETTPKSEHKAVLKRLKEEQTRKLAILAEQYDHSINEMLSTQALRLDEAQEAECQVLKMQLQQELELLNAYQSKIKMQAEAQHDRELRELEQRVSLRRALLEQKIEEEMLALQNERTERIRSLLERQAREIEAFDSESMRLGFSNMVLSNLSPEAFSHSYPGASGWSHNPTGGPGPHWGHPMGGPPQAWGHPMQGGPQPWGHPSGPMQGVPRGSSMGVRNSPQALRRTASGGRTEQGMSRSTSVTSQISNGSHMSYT
Briefly: Selectivity interaction (ActivX KiNativ screen (ex vivo kinase selectivity in human PBMCs)) EUB0001619a TAOK1. The class given is cell-based. The conditions noted are these: PBMC, at 1 µM.

Activated CDC42 kinase 1, sequence (Q07912 whole entry, looked up): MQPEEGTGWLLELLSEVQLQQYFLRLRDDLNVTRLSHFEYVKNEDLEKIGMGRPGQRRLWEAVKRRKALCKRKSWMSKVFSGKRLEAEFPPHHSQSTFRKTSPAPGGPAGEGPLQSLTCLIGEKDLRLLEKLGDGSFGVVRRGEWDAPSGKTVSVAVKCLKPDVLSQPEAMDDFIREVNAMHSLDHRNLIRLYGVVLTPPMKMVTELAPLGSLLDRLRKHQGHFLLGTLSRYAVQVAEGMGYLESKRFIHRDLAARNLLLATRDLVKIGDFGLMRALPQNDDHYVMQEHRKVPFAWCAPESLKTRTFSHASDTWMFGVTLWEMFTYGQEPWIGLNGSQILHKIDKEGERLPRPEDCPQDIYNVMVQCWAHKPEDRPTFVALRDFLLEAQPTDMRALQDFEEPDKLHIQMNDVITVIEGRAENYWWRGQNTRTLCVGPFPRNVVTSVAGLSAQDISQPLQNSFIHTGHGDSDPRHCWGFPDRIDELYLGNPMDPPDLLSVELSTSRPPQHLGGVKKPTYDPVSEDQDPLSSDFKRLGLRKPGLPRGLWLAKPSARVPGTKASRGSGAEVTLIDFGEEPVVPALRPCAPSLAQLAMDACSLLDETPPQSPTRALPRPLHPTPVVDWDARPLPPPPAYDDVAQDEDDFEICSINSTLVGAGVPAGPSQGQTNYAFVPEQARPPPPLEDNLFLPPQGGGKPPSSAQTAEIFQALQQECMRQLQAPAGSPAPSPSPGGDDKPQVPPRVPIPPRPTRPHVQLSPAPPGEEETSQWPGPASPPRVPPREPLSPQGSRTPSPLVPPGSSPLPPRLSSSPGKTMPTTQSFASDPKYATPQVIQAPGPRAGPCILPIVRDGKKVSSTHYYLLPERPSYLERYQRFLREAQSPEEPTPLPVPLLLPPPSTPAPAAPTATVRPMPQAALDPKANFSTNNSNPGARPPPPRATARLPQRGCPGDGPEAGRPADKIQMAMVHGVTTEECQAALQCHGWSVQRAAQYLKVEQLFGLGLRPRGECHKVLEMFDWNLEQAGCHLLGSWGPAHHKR
Cyclin-dependent kinase 19 (Homo sapiens), sequence (Q9BWU1 whole entry): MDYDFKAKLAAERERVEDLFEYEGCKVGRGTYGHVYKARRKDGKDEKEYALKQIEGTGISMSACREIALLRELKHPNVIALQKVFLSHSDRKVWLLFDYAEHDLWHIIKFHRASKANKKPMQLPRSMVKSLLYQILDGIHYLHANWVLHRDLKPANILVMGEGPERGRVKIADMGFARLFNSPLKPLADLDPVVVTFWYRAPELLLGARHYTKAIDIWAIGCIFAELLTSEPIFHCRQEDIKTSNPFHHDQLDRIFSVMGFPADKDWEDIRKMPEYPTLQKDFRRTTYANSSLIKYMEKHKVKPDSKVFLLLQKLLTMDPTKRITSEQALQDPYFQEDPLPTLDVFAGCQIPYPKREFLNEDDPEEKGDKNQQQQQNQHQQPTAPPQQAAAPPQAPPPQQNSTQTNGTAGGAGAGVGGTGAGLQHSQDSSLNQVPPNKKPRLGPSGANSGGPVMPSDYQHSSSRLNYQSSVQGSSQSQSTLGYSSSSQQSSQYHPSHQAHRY

Molecule `CN(C)C/C=C/C(=O)Nc1ccc(C(=O)N2CCCC(Nc3ncc(Cl)c(-c4c[nH]c5ccccc45)n3)C2)cc1` (stereo unspecified) returned a % of control at Activated CDC42 kinase 1 of 99%.

As to `COc1cc(Nc2nc(C)cc(-c3cnn4nc(OC)ccc34)n2)cc(C(F)(F)F)c1`, the % of control in assay [1] is 91%.

Take `CN(C)CCOc1ccc(-c2nc(-c3ccncc3)c(-c3ccc4c(c3)CC/C4=N\O)[nH]2)cc1`: in assay [2], the % of control was 98%.

The molecule `Cn1cc(-n2cnc3c(NCc4nc5cc(Cl)c(Cl)cc5[nH]4)nc(N4CCOCC4)nc32)cn1` had a % of control in assay [3] of 3.71%.

The molecule `COCC(=O)NC/C=C/c1ccc2ncnc(Nc3ccc(Oc4ccc(C)nc4)c(C)c3)c2c1` [CP-724714] gave a % of control in assay [4] of 100%.

For `N#Cc1cccc(-c2c[nH]c3ncnc(N4CCOCC4)c23)c1`, in assay [5], the % of inhibition amounted to 6%.
